This data set can be described thus: Pharmacokinetics of etonogestrel esters in the rabbit after one i.m. injection; plasma etonogestrel by LC-MSMS. The class given is in vivo. Here is the method: For the determination of the pharmacokinetic profile of the different etonogestrel-esters after parenteral application, i.m. application in the castrated rabbit model was chosen instead of s.c. Briefly, rabbits were injected once (day 1) with indicated etonogestrel-esters at 20 mg/kg in arachis oil (with a concentration of 40 mg/ml). At day 1, 2, 3, 4, 5, 6, 7, 8, 10, 12, 14, 21, 28, 35, 49, 63, 77, 92, 106, 120 and 133 blood was collected from the ear arteria, in EDTA-containing tubes. EDTA plasma was prepared (1500 g, 15 min) and stored at −20° C. With LC-MSMS the amount of parent compound (etonogestrel) was determined in these samples. The lower limit of this new assay is 0.5 nmol/l, from 0-250 nmol/l a linear curve was obtained with a correlation coefficient of 0,9998.

[1] abbreviates: one i.m. injection, 20 mg/kg in arachis oil.
The mark [2] stands for this setting: one i.m. injection, 20 mg/kg in arachis oil, parent etonogestrel measured.

The structures appear in SMILES notation.

`C#C[C@]1(OC(=O)CCCCCCCC)CC[C@H]2[C@@H]3CCC4=CC(=O)CC[C@@H]4[C@H]3C(=C)C[C@@]21CC` [Etonogestrel nonanoate]: under setting [1], the “duration with serum levels of etonogestrel above 1 nmol/l (in words)” value is listed as “extended duration” and the “initial peak levels of etonogestrel (in words)” value was “lower peak levels”.

`C#C[C@]1(OC(=O)CCCCCC)CC[C@H]2[C@@H]3CCC4=CC(=O)CC[C@@H]4[C@H]3C(=C)C[C@@]21CC` [Etonogestrel-heptanoate]: under setting [2], the “initial peak level of etonogestrel in plasma” value (“initial peak level … in plasma” for short) was determined as 120 nmol/L.

On to `C#CC1(OC(=O)CCCCCCCCC)CCC2C3CCC4=CC(=O)CCC4C3C(=C)CC21CC` (stereo not shown) [etonogestrel decanoate], for which, under setting [1], the “time of initial peak level of etonogestrel” value (“time … of etonogestrel” for short) stood at 5 days. Besides, the “initial peak level … in plasma” value under setting [2] stood at 24 nmol/L.

Regarding `C#C[C@]1(OC(=O)CCCCCCCCCCC)CC[C@H]2[C@@H]3CCC4=CC(=O)CC[C@@H]4[C@H]3C(=C)C[C@@]21CC` [etonogestrel dodecanoate], under setting [1], the “time … of etonogestrel” value was 8 days. For the same compound, under setting [2], the “initial peak level … in plasma” value was determined as 9 nmol/L.

Turning to `C#C[C@]1(OC(=O)CCCCCCCCCCCC)CC[C@H]2[C@@H]3CCC4=CC(=O)CC[C@@H]4[C@H]3C(=C)C[C@@]21CC` [etonogestrel tridecanoate], the “initial peak levels of etonogestrel (in words)” value under setting [1] is “no initial levels of etonogestrel were observed”.

With `C#C[C@]1(OC(=O)CCCCCCCCCC)CC[C@H]2[C@@H]3CCC4=CC(=O)CC[C@@H]4[C@H]3C(=C)C[C@@]21CC` [etonogestrel undecanoate], under setting [1], the “duration of action (etonogestrel level above 1 nmol/l)” value is “more than 92 days” and the “time … of etonogestrel” value is listed as “eight”. For the same compound, the “initial peak level … in plasma” value under setting [2] is 13 nmol/L.

Regarding `C#C[C@]1(O)CC[C@H]2[C@@H]3CCC4=CC(=O)CC[C@@H]4[C@H]3C(=C)C[C@@]21CC` [etonogestrel, (17α)-13-ethyl-17-hydroxy-11-methylene-18,19-dinorpregn-4-en-20-yn-3-one], for the setting “in vivo, 20 mg/kg”, the “initial peak level … in plasma” value is 200 nmol/L and the “time in which etonogestrel levels declined to below 1 nmol/l” value is recorded as 28 days.

Source of the values: patent publication US7323454B2, “Etonogestrel esters” (N.V. Organon, priority 2002, dated 2008).
